Experimental data from EP0182152B1, “Antitumor antibiotics (LL-E33288 Complex)” (AMERICAN CYANAMID COMPANY, priority 1984, dated 1986).

Columns and labels:
Type in all cases: in vivo, BDF1 mice
melanotic melanoma B16 = test: Melanotic Melanoma B16 Test
From the text: (§1) Certain in vivo testing systems and protocols have been developed by the National Cancer Institute for testing compounds to determine their suitability as anti-neoplastic agents. These have been reported in "Cancer Chemotherapy Reports", Part III, Vol. 3, No. 2 (1972), Geran, et al. These protocols have established standardized screening tests which are generally followed in the field of testing for antitumor agents. Of these systems, lymphocytic leukemia P388, melanotic melanoma B16, L1210 leukemia and colon 26 adenocarcinoma are particularly significant to the present invention. These neoplasms are utilized for testing as transplantable tumors in mice. Generally, significant anti-tumor activity, shown in these protocols by a percentage increase of mean survival times of the treated animals (T) over the control animals (C), is indicative of similar results in human leukemias and solid tumors.
The animals used were BDF1 mice, all of the same sex, weighing a minimum of 17 g and all within a 3 g weight range. There are normally 6 animals per test group. A 1 g portion of melanotic melanoma β16 tumor was homogenized in 10 ml of cold balanced salt solution and a 0.5 ml aliquot of the homogenate was implanted intraperitoneally into each of the test mice. LL-E33288 antibiotics were tested in the β16 system both as the individual β1-Br and γ1-Br components and as a complex of all components (Bromo-complex). The test compounds were administered intraperitioneally on days 1 through 9 (relative to tumor inoculation) at various doses. The mice were weighed and survivors recorded on a regular basis for 60 days. The median survival time and the ratio of survival time for treated (T)/control (C) animals were calculated. The positive control compounds were Cisplatin or Adriamycin. The results of this test appear in Table V. If T/C X 100 (%) is 125 or over, the tested compound is considered to have significant anti-tumor activity.
(§2) In the same manner, the following iodo-components were tested for antineoplastic activity.

[1] = tested on: lymphocytic leukemia L1210; test: Lymphocytic Leukemia L1210 Test
From the text: as §1
The animals used were BDF1 mice, all of one sex, weighing a minimum of 17 g and all within a 3 g weight range. There were 6 mice in each test group and 18 in control groups. The tumor transplant was by intraperitoneal injection of 0.5 ml of lymphocytic leukemia L1210 at a concentration of 10^5 cells per mouse. LL-E33288 antibiotics were tested in the L1210 system both as the individual β1-Br component and as a complex of all components (Bromo-complex). The test compounds were administered on days 1, 5 and 9 or days 1 through 9 (relative to tumor inoculation) at various doses. The mice were weighed and survivors recorded on a regular basis for 30 days. The median survival time and the ratio of survival time for treated (T)/control (C) animals were calculated. The positive control compound was 1,4-dihydroxy-5,8-bis[[2-(2-hydroxyethylamino)ethyl]amino]anthraquinone dihydrochloride or Cisplatin given intraperitoneally at the indicated dose. If T/C X 100 (%) is 125 or over, the tested compound is considered to have significant anti-tumor activity.
as §2

[2] = tested on: lymphocytic leukemia P388; test: Lymphocytic Leukemia P388 Test; conditions: Table IX
From the text: as §1
The animals used were BDF1 mice, all of one sex, weighing a minimum of 17 g and all within a 3 g weight range. There were 5 or 6 mice per test group. The tumor transplant was by intraperitoneal injection of 0.5 ml of dilute ascitic fluid containing 10^6 cells of lymphocytic leukemia P388. LL-E33288 antibiotics were tested in the P388 system both as the individual β1-Br and […] components and as a complex of all components (Bromo-complex). The test compounds were administered intrapertioneally at a volume of 0.5 ml in 0.2% Klucel in normal saline on days 1, 5 and 9 (relative to tumor inoculation) at the indicated doses. The mice were weighed and the survivors recorded on a regular basis for 30 days. The median survival time and the ratio of survival time for treated (T)/control (C) animals were calculated. The positive control compound was Cisplatin given as an intraperitioneal injection in 0.5 ml of 0.2% Klucel on days 1, 5 and 9 at the indicated doses.
If T/C X 100 (%) is 125 or over, the tested compound is considered to have significant anti-tumor activity.
as §2

[3] = Table V, dose 0.4 mg/kg, control 19 days, survivors recorded for 60 days
[4] = Table V, dose 0.8 mg/kg, control 19 days, survivors recorded for 60 days
[5] = Table X, dose 0.2 mg/kg, control value not given
[6] = Table X, dose 0.4 mg/kg, control value not given
[7] = Table X, dose 0.8 mg/kg, control value not given
[8] = Table VI, days 1, 5 and 9 or days 1 through 9, dose 0.4 mg/kg, control 16.7 days
[9] = Table VI, days 1, 5 and 9 or days 1 through 9, dose 0.8 mg/kg, control 16.7 days
[10] = Table VI, i.p., dose 1.6 mg/kg, control 16.7 days
[11] = Table XI, dose 0.4 mg/kg, control 9 days
[12] = Table XI, dose 0.8 mg/kg, control 9 days
[13] = Table XI, dose 1.6 mg/kg, control 9 days
[14] = Table XI, dose 3.2 mg/kg, control 9 days
[15] = Test 1, dose 1.6 mg/kg, control 13 days
[16] = Test 2, dose 0.8 mg/kg, control 11 days
[17] = Test 2, dose 1.6 mg/kg, control 11 days

SMILES: COc1cccc2c1C(=O)c1c(O)c3c(c(O)c1C2=O)C[C@@](O)(C(=O)CO)C[C@@H]3O[C@H]1C[C@H](N)[C@H](O)[C@H](C)O1 [Adriamycin]
- Median Survival (melanotic melanoma B16; [3]): > 60 days
- T/C x 100 (melanotic melanoma B16; [3]): > 316%
- Median Survival (melanotic melanoma B16; [4]): > 60 days
- T/C x 100 (melanotic melanoma B16; [4]): > 316%
- Median Survival (melanotic melanoma B16; [5]): 34.5 days
- T/C x 100 (melanotic melanoma B16; [5]): 203%
- Median Survival (melanotic melanoma B16; [6]): 40 days
- T/C x 100 (melanotic melanoma B16; [6]): 235%
- Median Survival (melanotic melanoma B16; [7]): 48 days
- T/C x 100 (melanotic melanoma B16; [7]): 282%

SMILES: Cl.Cl.O=C1c2c(O)ccc(O)c2C(=O)c2c(NCCNCCO)ccc(NCCNCCO)c21 [Novantrone®, 1,4-dihydroxy-5,8-bis[[2-(2-hydroxyethylamino)ethyl]amino]anthraquinone dihydrochloride]
- Median Survival [1, 8]: 30 days
- T/C x 100 [1, 8]: 180%
- Median Survival [1, 9]: 30 days
- T/C x 100 [1, 9]: 180%
- Median Survival [1, 10]: 30 days
- T/C x 100 [1, 10]: 180%
- Median Survival [1, 11]: 11 days
- T/C x 100 [1, 11]: 122%
- Median Survival [1, 12]: 12 days
- T/C x 100 [1, 12]: 133%
- Median Survival [1, 13]: 11.5 days
- T/C x 100 [1, 13]: 128%
- Median Survival [1, 14]: 15 days
- T/C x 100 [1, 14]: 167%
- Median Survival [2, 15]: 22.5 days
- T/C x 100 [2, 15]: 173%
- Median Survival [2, 16]: 16 days
- T/C x 100 [2, 16]: 145%
- Median Survival [2, 17]: 19 days
- T/C x 100 [2, 17]: 173%
